Experimental data published in patent publication US20190031717A1, “MULTI-FUNCTIONAL FUSION POLYPEPTIDE, PREPARATION METHOD THEREOF, AND APPLICATION OF SAME” (NANJING ANJI BIOLOGICAL TECHNOLOGY CO., LTD, priority 2016, published 2019).

Assays:
[1] = system: A549 cells induced by TGF-β1 (lung fibrosis model); assay: Hydroxyproline content in TGF-β1-induced A549 pulmonary fibrosis cell model; assay type: cell-based, human; conditions: for Hydroxyproline Content Inhibition Rate in the Pulmonary Fibrosis Model: 48 hours
Method: Human non-small cell lung cancer cells A549 were cultured in DMEM medium containing 10% (volume fraction) fetal bovine serum, cultured in a carbon dioxide incubator with a volume fraction of 5% at 37° C., and changed once every other day, depending on cell density. A549 cells in logarithmic growth phase were digested with 0.25% trypsin to prepare a cell suspension, adjusted to a cell concentration of 1×10^9 cells/L, and seeded at a density of 4×10^5 cells/cm2 in a cell culture dish of 90 cm^2. The cells were randomly divided into two groups: (1) control group: cultured in DMEM containing 10% (volume fraction) fetal bovine serum; (2) model group: containing 10% (volume fraction) fetal bovine serum, transforming growth factor (TGF-β1, final concentration 5 μg/L) was cultured in DMEM. The cells were cultured at 37° C. in a volumetric 5% carbon dioxide incubator, and changed every other day, depending on the cell density. Cell morphology was observed daily using an inverted microscope to determine when the model was established. When A549 cells are changed from the cobblestone shape of the original epithelial cells to the long spindle shape of the interstitial cells, the modeling is successfully established.
After 48 hours of addition of the polypeptides, the cells of the control group, the model group, and the administration group were collected for subsequent measurement of molecular markers related to pulmonary fibrosis.
Hydroxyproline accounts for 13.4% of collagen, so the content of hydroxyproline can reflect the accumulation of collagen during pulmonary fibrosis, which in turn reflects the degree of pulmonary fibrosis.
Prepare citric acid buffer: 120 g of sodium citrate, 12 mL of glacial acetic acid, 46 g of citric acid, 34 g of sodium hydroxide, dissolved in distilled water, adjust the pH to 6.0, and then dilute to 1000 mL.
Prepare 0.05 mol/L chloramine T solution: weigh 7.05 g of chloramine T, dissolve in 100 mL of distilled water, then add 150 mL of ethylene glycol, and add 250 mL of citric acid buffer to mix well.
Prepare p-dimethylaminobenzaldehyde: Reagent A: Take 20 mL of absolute ethanol, slowly add 2.74 mL of concentrated sulfuric acid; Reagent B: Take 12.0 g of p-dimethylaminobenzaldehyde, slowly add 40 mL of absolute ethanol. Heat in a water bath to completely dissolve and cool to room temperature, then slowly add the A solution to B and mix well.
Prepare a […] perchloric acid solution: take 27 mL of perchloric acid and dilute to 100 mL with distilled water.
The specific steps are as follows: collect the cells in a 1 mL water solution and lyse the cells using a homogenizer; adjust the pH to neutral, dilute to 3 mL, add activated carbon to centrifuge; take 1 mL supernatant, add 1 mL solution 1 (1 mL citrate buffer and 1 mL 0.05 mol/L chloramine T solution), stand for 10 minutes, add 1 mL of perchloric acid, stand for 5 minutes, add 1 mL of p-dimethylaminobenzaldehyde reagent, keep in 60° C. water bath for 15 minutes; centrifuge at 3500 rpm/min for 10 minutes, take the supernatant to measure the absorbance value at a wavelength of 550 nm.
The test was repeated 3 times independently, and the inhibition rate was calculated as follows: inhibition rate (%)=(1−experimental group absorbance/model group absorbance)×100%.

Staphylococcal fluid = assay: Mouse pneumonia model, bacterial; assay type: in vivo, BALB/C mice; set-up: concentration or dose not given beside the values; conditions: mean ± SD
Method: (§1) The mouse pneumonia model was successfully established by the nose-drop method. To build the mouse pneumonia model, BALB/C mice with a body mass of 16-22 g were selected and anesthetized pneumonia chain was prepared after anesthesia with ether on day 0, day 1, and day 2. Staphylococcal fluid, adenovirus concentrate, Mycoplasma pneumoniae, Chlamydia pneumoniae, protozoa, and pneumonia fungi were slowly dripped into the nasal cavity of the mice, so that they enter the tracheobronchial. During the operation process, care was exercised to prevent bacterial fluid from flowing into the esophagus, which leads to inactivation the bacterial fluid. After successful model establishment, the polypeptides of the present invention were administered, and the results were shown in Table 5. […] The results were expressed in average value±standard deviation.

Chlamydia pneumoniae = assay: Mouse pneumonia model, chlamydia; assay type: in vivo, BALB/C mice; set-up: concentration or dose not given beside the values; conditions: mean ± SD
Method: as §1

Bladder Cancer = assay: MTT assay, tumor cells; assay type: cell-based, human; set-up: concentration or dose not given beside the values; conditions: 48 hours, mean ± SD
Method: (§2) A variety of human tumor cells were cultured in a 37° C., 5% (volume fraction) CO2 incubator to a density of 90% or more, collected by trypsinization, resuspended in a culture medium and counted under a microscope, and the cells were harvested. The concentration was adjusted to 2.0×10^4 cells/mL, the cell suspension was inoculated into a 96-well plate at 100 μL per well and cultured overnight at 37° C. in a 5% (volume fraction) CO2 incubator. After the cells were completely adhered, the polypeptides of the present invention were added as drug-administered groups, and a culture solution containing no drug was used as a blank control group, and the culture solution was diluted to each predetermined concentration. Each dilution was separately added to a 96-well plate at 100 μL per well and incubated for 48 hours at 37° C. in a 5% (volume fraction) CO2 incubator. 20 μL of 5 mg/mL MTT was added to each well of a 96-well plate and incubation was continued for 4 h. The medium was aspirated and dissolved in 100 μL of DMSO per well. The absorbance was measured with a microplate reader at a detection wavelength of 570 nm and a reference wavelength of 630 nm, and the growth inhibition rate was calculated as follows: tumor growth inhibition rate (%)=(1−absorbance value of the administered group/unadministered group absorbance value)×100%, and the experiment was repeated 3 times independently. The results obtained from the test were expressed as mean±standard deviation, and the tumor growth inhibition rate of the unadministered group was 0. The results in Table 7 indicate that the polypeptides of the present invention have a significant inhibitory effect on the growth of various tumors (FIG. 6).

Cervical cancer = assay: MTT assay, tumor cells; assay type: cell-based, human; set-up: concentration or dose not given beside the values; conditions: 48 hours, mean ± SD
Method: as §2

Gastric cancer = assay: MTT assay, tumor cells; assay type: cell-based, human; set-up: concentration or dose not given beside the values; conditions: 48 hours, mean ± SD
Method: as §2

Head and neck cancer = assay: MTT assay, tumor cells; assay type: cell-based, human; set-up: concentration or dose not given beside the values; conditions: 48 hours, mean ± SD
Method: as §2

Liver cancer = assay: MTT assay, tumor cells; assay type: cell-based, human; set-up: concentration or dose not given beside the values; conditions: 48 hours, mean ± SD
Method: as §2

Melanoma = assay: MTT assay, tumor cells; assay type: cell-based, human; set-up: concentration or dose not given beside the values; conditions: 48 hours, mean ± SD
Method: as §2

Ovarian cancer = assay: MTT assay, tumor cells; assay type: cell-based, human; set-up: concentration or dose not given beside the values; conditions: 48 hours, mean ± SD
Method: as §2

Pancreatic cancer = assay: MTT assay, tumor cells; assay type: cell-based, human; set-up: concentration or dose not given beside the values; conditions: 48 hours, mean ± SD
Method: as §2

sarcoma = assay: MTT assay, tumor cells; assay type: cell-based, human; set-up: concentration or dose not given beside the values; conditions: 48 hours, mean ± SD
Method: as §2

Substance	effect on content of hydroxyproline in lung fibrosis model cells (FIG. 1-3), in words [1]	Hydroxyproline Content Inhibition Rate in the Pulmonary Fibrosis Model ([1]; 4 uM) [%]	Hydroxyproline Content Inhibition Rate in the Pulmonary Fibrosis Model ([1]; 8 uM) [%]	Inhibitory Effects on Various Pulmonary Infections (Staphylococcal fluid) [%]	Inhibitory Effects on Various Pulmonary Infections (Chlamydia pneumoniae) [%]	tumor growth inhibition rate, MTT Assay (Bladder Cancer) [%]	tumor growth inhibition rate, MTT Assay (Cervical cancer) [%]	tumor growth inhibition rate, MTT Assay (Gastric cancer) [%]	tumor growth inhibition rate, MTT Assay (Head and neck cancer) [%]	tumor growth inhibition rate, MTT Assay (Liver cancer) [%]	tumor growth inhibition rate, MTT Assay (Melanoma) [%]	tumor growth inhibition rate, MTT Assay (Ovarian cancer) [%]	tumor growth inhibition rate, MTT Assay (Pancreatic cancer) [%]	tumor growth inhibition rate, MTT Assay (sarcoma) [%]
Arg-Gly-Asp-Gly-Gly-Gly-Gly-Ile-Val-Arg-Arg-Ala-Asp-Arg-Ala-Ala-Val-Pro-Gly-Gly-Gly-Gly-Pro-(D-Pyr)-(D-Cys)-Bip-Arg-Gly-Glu [Polypeptide IV]	can inhibit the content of hydroxyproline in lung fibrosis model cells	33.09	47.28	44.75 ± 13.08	47.43 ± 17.72	52.23 ± 13.97	64.58 ± 28.95	65.35 ± 21.81	48.89 ± 13.08	73.42 ± 19.64	57.25 ± 15.31	91.45 ± 24.46	74.13 ± 24.16	66.39 ± 17.76
Arg-Gly-Asp-Gly-Gly-Gly-Gly-Pro-(D-Pyr)-(D-Cys)-Bip-Arg-Gly-Glu-Gly-Gly-Gly-Gly-Ile-Val-Arg-Arg-Ala-Asp-Arg-Ala-Ala-Val-Pro [Polypeptide III]	can inhibit the content of hydroxyproline in lung fibrosis model cells	30.66	56.21	47.07 ± 13.26	49.88 ± 14.05	58.81 ± 12.90	68.52 ± 26.72	73.58 ± 20.14	55.05 ± 12.07	82.66 ± 18.13	64.46 ± 14.14	75.87 ± 22.58	66.99 ± 22.30	74.75 ± 16.39
Ile-Val-Arg-Arg-Ala-Asp-Arg-Ala-Ala-Val-Pro-Gly-Gly-Gly-Gly-Arg-Gly-Asp-Gly-Gly-Gly-Gly-Pro-(D-Pyr)-(D-Cys)-Bip-Arg-Gly-Glu [Polypeptide V]	can inhibit the content of hydroxyproline in lung fibrosis model cells	34.47	49.25	38.12 ± 11.17	40.40 ± 15.13	44.49 ± 11.93	64.58 ± 24.72	55.67 ± 18.63	41.65 ± 11.17	62.54 ± 16.77	48.77 ± 13.08	77.90 ± 20.89	63.15 ± 20.63	56.55 ± 15.16
Ile-Val-Arg-Arg-Ala-Asp-Arg-Ala-Ala-Val-Pro-Gly-Gly-Gly-Gly-Pro-(D-Pyr)-(D-Cys)-Bip-Arg-Gly-Glu-Gly-Gly-Gly-Gly-Arg-Gly-Asp [Polypeptide II]	can inhibit the content of hydroxyproline in lung fibrosis model cells	31.28	57.35	43.43 ± 12.38	46.02 ± 13.12	50.68 ± 12.04	62.34 ± 24.94	63.41 ± 18.79	47.44 ± 11.27	71.24 ± 16.92	55.55 ± 13.19	88.74 ± 21.07	71.93 ± 20.82	64.42 ± 15.30
